Results taken from ChEMBL document CHEMBL1201862, “PubChem BioAssay data set” (2004).
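All cell lines were grown in 96-well plates and treated with compound for 48 hours. GI50 is the concentration that inhibits growth by half.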 Calls of active or inactive are those of the source. Rule as the data show it: active = GI50 up to about 1.1 µM and inactive = higher.

Assays:
Assay in all cases: NCI-60 cell line screen, 48 h
786-0 = test system: 786-0
A498 = test system: A498
A549 = test system: A549
ACHN = test system: ACHN
BT-549 = test system: BT-549
CAKI-1 = test system: CAKI-1
CCRF-CEM = test system: CCRF-CEM
COLO 205 = test system: COLO 205
DU-145 = test system: DU-145
EKVX = test system: EKVX
HCC 2998 = test system: HCC 2998
HCT-116 = test system: HCT-116
HCT-15 = test system: HCT-15
HL-60 = test system: HL-60
HOP-62 = test system: HOP-62
HOP-92 = test system: HOP-92
HT-29 = test system: HT-29
Hs-578T = test system: Hs-578T
IGROV-1 = test system: IGROV-1
K562 = test system: K562
KM12 = test system: KM12
LOX IMVI = test system: LOX IMVI
M14 = test system: M14
MCF7 = test system: MCF7
MDA-MB-231 = test system: MDA-MB-231
MDA-MB-435 = test system: MDA-MB-435
MDA-N = test system: MDA-N
MOLT-4 = test system: MOLT-4
Malme-3M = test system: Malme-3M
NCI-H226 = test system: NCI-H226
NCI-H23 = test system: NCI-H23
NCI-H460 = test system: NCI-H460
NCI-H522 = test system: NCI-H522
NCI/ADR-RES = test system: NCI/ADR-RES
OVCAR-3 = test system: OVCAR-3
OVCAR-4 = test system: OVCAR-4
OVCAR-5 = test system: OVCAR-5
OVCAR-8 = test system: OVCAR-8
PC-3 = test system: PC-3
RPMI-8226 = test system: RPMI-8226
RXF 393 = test system: RXF 393
SF-268 = test system: SF-268
SF-295 = test system: SF-295
SF-539 = test system: SF-539
SK-MEL-28 = test system: SK-MEL-28
SK-MEL-2 = test system: SK-MEL-2
SK-MEL-5 = test system: SK-MEL-5
SK-OV-3 = test system: SK-OV-3
SN12C = test system: SN12C
SNB-19 = test system: SNB-19
SNB-75 = test system: SNB-75
SR = test system: SR
SW-620 = test system: SW-620
T47D = test system: T47D
TK-10 = test system: TK-10
U-251 = test system: U-251
UACC-257 = test system: UACC-257
UACC-62 = test system: UACC-62
UO-31 = test system: UO-31

In the case of `COc1cc2c(cc1OC)-c1cc3cc(OC)c(OC)cc3c(=O)n1CC2`, the GI50 (786-0) is reported as 23.3 µM (inactive), the GI50 (A498) is reported as 7.59 µM (inactive) and the GI50 (A549) is reported as 41.2 µM (inactive). The GI50 (ACHN) was 14.4 µM (inactive), the GI50 (BT-549) was 37.3 µM (inactive) and the GI50 (CAKI-1) was 4.93 µM (inactive). For the same compound, the GI50 (CCRF-CEM) was 3.21 µM (inactive), the GI50 (COLO 205) was 26.5 µM (inactive) and the GI50 (DU-145) was 4.57 µM (inactive). The GI50 (EKVX) was 28.8 µM (inactive), the GI50 (HCC 2998) was 30.7 µM (inactive) and the GI50 (HCT-116) was 16.3 µM (inactive). For the same compound, the GI50 (HCT-15) was 38.5 µM, the GI50 (HL-60) was 17.7 µM (inactive) and the GI50 (HOP-62) was 6.5 µM (inactive). The GI50 (HOP-92) was 2.34 µM (inactive), the GI50 (HT-29) was 28.6 µM (inactive) and the GI50 (Hs-578T) was 6 µM (inactive). The GI50 (IGROV-1) was 4.91 µM (inactive), the GI50 (K562) was 10.4 µM (inactive) and the GI50 (KM12) was > 50.5 µM (inactive). For the same compound, the GI50 (LOX IMVI) was 13.2 µM (inactive), the GI50 (M14) was 27 µM (inactive) and the GI50 (MCF7) was 5.89 µM (inactive). For the same compound, the GI50 (MDA-MB-231) was 14.8 µM (inactive), the GI50 (MDA-MB-435) was 31.6 µM (inactive) and the GI50 (MDA-N) was 67.9 µM (inactive). For the same compound, the GI50 (MOLT-4) was 3.51 µM (inactive), the GI50 (Malme-3M) was 8.04 µM (inactive) and the GI50 (NCI-H226) was 8.75 µM (inactive). The GI50 (NCI-H23) was 46.5 µM (inactive), the GI50 (NCI-H460) was > 25.6 µM (inactive) and the GI50 (NCI-H522) was 2.76 µM (inactive). For the same compound, the GI50 (NCI/ADR-RES) was 21.7 µM (inactive), the GI50 (OVCAR-3) was 15.7 µM (inactive) and the GI50 (OVCAR-4) was 30.3 µM (inactive). For the same compound, the GI50 (OVCAR-5) was > 62.2 µM (inactive), the GI50 (OVCAR-8) was 41.9 µM (inactive) and the GI50 (PC-3) was 21.2 µM (inactive). The GI50 (RPMI-8226) was 3.16 µM (inactive), the GI50 (RXF 393) was 17.3 µM (inactive) and the GI50 (SF-268) was 26.5 µM (inactive). The GI50 (SF-295) was 11.5 µM (inactive), the GI50 (SF-539) was 6.12 µM (inactive) and the GI50 (SK-MEL-28) was > 62.1 µM (inactive). The GI50 (SK-MEL-2) was 11.5 µM (inactive), the GI50 (SK-MEL-5) was 4.41 µM (inactive) and the GI50 (SK-OV-3) was 14.1 µM (inactive). The GI50 (SN12C) was 14.6 µM (inactive), the GI50 (SNB-19) was 20.7 µM (inactive) and the GI50 (SNB-75) was 9.4 µM (inactive). The GI50 (SR) was 2.07 µM (inactive), the GI50 (SW-620) was 9.51 µM (inactive) and the GI50 (T47D) was 2.58 µM (inactive). For the same compound, the GI50 (TK-10) was 8.07 µM (inactive), the GI50 (U-251) was 17.3 µM (inactive) and the GI50 (UACC-257) was 26.1 µM (inactive). The GI50 (UACC-62) was 5.35 µM (inactive) and the GI50 (UO-31) was 2.43 µM (inactive).

`O=C1C(Cl)C(c2cc3cc(Br)ccc3nc2Cl)N1c1ccc(F)c(Cl)c1` (stereo not drawn) was tested, and the GI50 (786-0) was 1.09 µM (active), the GI50 (A498) was 5.61 µM (inactive) and the GI50 (A549) was 12.6 µM (inactive). For the same compound, the GI50 (ACHN) was 8.53 µM (inactive), the GI50 (BT-549) was 7.52 µM (inactive) and the GI50 (CAKI-1) was 0.857 µM (active). For the same compound, the GI50 (CCRF-CEM) was 0.418 µM (active), the GI50 (COLO 205) was 6.62 µM (inactive) and the GI50 (DU-145) was 8.02 µM (inactive). The GI50 (EKVX) was 1.42 µM (inactive), the GI50 (HCC 2998) was 11.7 µM (inactive) and the GI50 (HCT-116) was 7.94 µM (inactive). The GI50 (HCT-15) was 6.44 µM, the GI50 (HL-60) was 2.47 µM (inactive) and the GI50 (HOP-62) was 1.76 µM (inactive). For the same compound, the GI50 (HOP-92) was 1.31 µM (inactive), the GI50 (HT-29) was 10.7 µM (inactive) and the GI50 (Hs-578T) was 20.1 µM (inactive). For the same compound, the GI50 (IGROV-1) was 0.957 µM (active), the GI50 (K562) was 3.07 µM (inactive) and the GI50 (KM12) was 3.21 µM (inactive). The GI50 (LOX IMVI) was 0.055 µM (active), the GI50 (M14) was 9.42 µM (inactive) and the GI50 (MCF7) was 5.96 µM (inactive). For the same compound, the GI50 (MDA-MB-231) was 8.09 µM (inactive), the GI50 (MDA-MB-435) was 5.64 µM (inactive) and the GI50 (MDA-N) was 7.03 µM (inactive). The GI50 (MOLT-4) was 0.594 µM (active), the GI50 (Malme-3M) was 11 µM (inactive) and the GI50 (NCI-H226) was 6.7 µM (inactive). For the same compound, the GI50 (NCI-H23) was 3.83 µM (inactive), the GI50 (NCI-H460) was 11.7 µM (inactive) and the GI50 (NCI-H522) was 0.275 µM (active). For the same compound, the GI50 (NCI/ADR-RES) was 5.57 µM (inactive), the GI50 (OVCAR-3) was 4.13 µM (inactive) and the GI50 (OVCAR-4) was 1.76 µM (inactive). The GI50 (OVCAR-5) was 12 µM (inactive), the GI50 (OVCAR-8) was 6.14 µM (inactive) and the GI50 (PC-3) was 3.59 µM (inactive). For the same compound, the GI50 (RPMI-8226) was 1.36 µM (inactive), the GI50 (RXF 393) was 5.4 µM (inactive) and the GI50 (SF-268) was 2.99 µM (inactive). For the same compound, the GI50 (SF-295) was 7.14 µM (inactive), the GI50 (SF-539) was 1.51 µM (inactive) and the GI50 (SK-MEL-28) was 14.6 µM (inactive). For the same compound, the GI50 (SK-MEL-2) was 8.83 µM (inactive), the GI50 (SK-MEL-5) was 9.02 µM (inactive) and the GI50 (SK-OV-3) was 6.75 µM (inactive). For the same compound, the GI50 (SN12C) was 7.73 µM (inactive), the GI50 (SNB-19) was 9.73 µM (inactive) and the GI50 (SNB-75) was 8.61 µM (inactive). For the same compound, the GI50 (SR) was 1.03 µM (active), the GI50 (SW-620) was 5.98 µM (inactive) and the GI50 (T47D) was 8.09 µM (inactive). For the same compound, the GI50 (TK-10) was 6.32 µM (inactive), the GI50 (U-251) was 2.77 µM (inactive) and the GI50 (UACC-257) was 11.4 µM (inactive). The GI50 (UACC-62) was 9.12 µM (inactive) and the GI50 (UO-31) was 0.118 µM (active).
